Source: ChEMBL document CHEMBL4699616, “Novel deoxyvasicinone and tetrahydro-beta-carboline hybrids as inhibitors of acetylcholinesterase and amyloid beta aggregation” (Bioorg Med Chem Lett, 2020)
The source made the active and inactive calls. The rule behind the calls is not given here.

Columns and labels:
Acetylcholinesterase [1] = biological target: T1, Acetylcholinesterase (Homo sapiens, UniProt P22303); assay: Inhibition of human erythrocytes AChE by Ellman's method; assay type: cell-based, Erythrocyte
T1 sequence (P22303 whole entry): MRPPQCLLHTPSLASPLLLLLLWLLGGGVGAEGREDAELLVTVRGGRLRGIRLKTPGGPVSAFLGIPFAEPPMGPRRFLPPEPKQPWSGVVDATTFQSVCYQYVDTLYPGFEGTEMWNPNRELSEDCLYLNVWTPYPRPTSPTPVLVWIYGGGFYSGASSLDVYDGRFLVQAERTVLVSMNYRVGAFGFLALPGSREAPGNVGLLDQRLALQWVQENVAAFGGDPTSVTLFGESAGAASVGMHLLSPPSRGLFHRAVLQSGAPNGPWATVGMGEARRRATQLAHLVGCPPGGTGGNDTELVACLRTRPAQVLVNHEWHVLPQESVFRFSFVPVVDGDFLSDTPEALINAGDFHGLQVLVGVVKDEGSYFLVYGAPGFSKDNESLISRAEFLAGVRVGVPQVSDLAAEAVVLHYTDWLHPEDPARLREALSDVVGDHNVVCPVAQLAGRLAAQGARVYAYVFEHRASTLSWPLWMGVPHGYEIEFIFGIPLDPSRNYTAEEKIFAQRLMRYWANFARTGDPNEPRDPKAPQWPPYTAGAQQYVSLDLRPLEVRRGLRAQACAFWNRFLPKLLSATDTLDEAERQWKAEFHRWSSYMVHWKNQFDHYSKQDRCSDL

[2] = biological target: T2, Amyloid-beta precursor protein (Homo sapiens, UniProt P05067)
T2 sequence (P05067 whole entry): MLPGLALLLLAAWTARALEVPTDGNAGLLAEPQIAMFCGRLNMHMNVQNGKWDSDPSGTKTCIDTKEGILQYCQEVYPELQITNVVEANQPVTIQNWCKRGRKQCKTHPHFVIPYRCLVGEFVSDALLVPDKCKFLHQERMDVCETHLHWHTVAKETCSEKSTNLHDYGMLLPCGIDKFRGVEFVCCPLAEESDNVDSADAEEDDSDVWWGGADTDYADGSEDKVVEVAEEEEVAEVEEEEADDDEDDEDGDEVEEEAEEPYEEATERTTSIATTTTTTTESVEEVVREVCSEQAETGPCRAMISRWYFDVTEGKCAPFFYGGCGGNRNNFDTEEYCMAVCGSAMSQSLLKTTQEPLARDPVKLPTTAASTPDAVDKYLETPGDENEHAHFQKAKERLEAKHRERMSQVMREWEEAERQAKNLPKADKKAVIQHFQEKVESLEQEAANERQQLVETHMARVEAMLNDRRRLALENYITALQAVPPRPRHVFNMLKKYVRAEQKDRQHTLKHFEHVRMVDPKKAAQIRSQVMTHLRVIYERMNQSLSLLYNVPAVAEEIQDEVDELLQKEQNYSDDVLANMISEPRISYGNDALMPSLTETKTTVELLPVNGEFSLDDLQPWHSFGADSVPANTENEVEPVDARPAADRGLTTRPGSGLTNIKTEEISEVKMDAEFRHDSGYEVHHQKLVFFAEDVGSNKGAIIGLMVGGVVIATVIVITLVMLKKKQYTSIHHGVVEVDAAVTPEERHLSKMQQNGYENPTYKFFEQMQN
Description: Inhibition of amyloid beta (1 to 42) (unknown origin) self aggregation incubated for 48 hrs by thioflavin-T fluorescence method

Cholinesterase [3] = biological target: T3, Cholinesterase (Homo sapiens, UniProt P06276)
T3 sequence (P06276 whole entry): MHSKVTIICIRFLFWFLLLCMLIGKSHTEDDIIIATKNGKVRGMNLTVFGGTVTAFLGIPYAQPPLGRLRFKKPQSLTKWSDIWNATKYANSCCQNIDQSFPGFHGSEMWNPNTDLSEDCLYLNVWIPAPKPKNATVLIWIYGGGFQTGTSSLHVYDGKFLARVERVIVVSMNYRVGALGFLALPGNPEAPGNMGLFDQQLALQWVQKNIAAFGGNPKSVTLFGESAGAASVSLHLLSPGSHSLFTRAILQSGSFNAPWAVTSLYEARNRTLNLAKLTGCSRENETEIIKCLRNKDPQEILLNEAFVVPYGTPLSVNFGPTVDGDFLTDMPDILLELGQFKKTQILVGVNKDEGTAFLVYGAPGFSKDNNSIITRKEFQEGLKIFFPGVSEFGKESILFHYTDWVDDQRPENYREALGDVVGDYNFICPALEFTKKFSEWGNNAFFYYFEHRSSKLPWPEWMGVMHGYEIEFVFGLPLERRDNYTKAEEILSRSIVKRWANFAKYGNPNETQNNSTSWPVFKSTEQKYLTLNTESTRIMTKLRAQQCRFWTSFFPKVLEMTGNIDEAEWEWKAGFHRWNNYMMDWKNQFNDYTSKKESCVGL
Description: Inhibition of human serum BuChe by Ellman's method

Acetylcholinesterase [4] = biological target: T1, Acetylcholinesterase; assay: Inhibition of human erythrocytes AChE at 1 uM by Ellman's method relative to control; assay type: cell-based; details: Erythrocyte
[5] = biological target: T2, Amyloid-beta precursor protein; assay: Inhibition of amyloid beta (1 to 42) (unknown origin) self aggregation at 20 uM incubated for 48 hrs by thioflavin-T fluorescence method relative to control
Cholinesterase [6] = biological target: T3, Cholinesterase; assay: Inhibition of human serum BuChe at 1 uM by Ellman's method relative to control; assay type: cell-free
Acetylcholinesterase [7] = biological target: T1, Acetylcholinesterase; assay: Inhibition of human erythrocytes AChE using acetylthiocholine iodide as substrate preincubated for 4.5 mins followed by substrate addition measured after 2.5 mins by Ellman's method; design: species or system Erythrocyte
[8] = biological target: T2, Amyloid-beta precursor protein; assay: Potency index, ratio of resveratrol IC50 to test compound IC50 for inhibition of amyloid beta (1 to 42) (unknown origin) self aggregation
SH-SY5Y [9] = assay: Neuroprotective activity against amyloid beta (1 to 42) induced cell damage in human SH-SY5Y cells assessed as increase in cell viability at 1 to 10 uM measured after 48 hrs; assay type: functional, cell-based; details: dose microM 1-10, time 48.0 hrs
[10] = Cytotoxicity against human SH-SY5Y cells assessed as cell viability at 10 uM after 48 hrs by MTT assay relative to control; assay type: cell-based; details: read-out: Activity
SH-SY5Y [11] = assay: Neuroprotective activity against amyloid beta (1 to 42) induced cell damage in human SH-SY5Y cells assessed as increase in cell viability at 0.1 uM measured after 48 hrs; assay type: functional, cell-based
SH-SY5Y [12] = assay: Cytotoxicity against human SH-SY5Y cells assessed as effect on cell viability at 0.1 to 1 uM after 48 hrs by MTT assay; assay type: cell-based; details: dose 0.1-1 µM
SH-SY5Y [13] = assay: Cytotoxicity against human SH-SY5Y cells assessed as effect on cell viability at 0.1 uM after 48 hrs by MTT assay; assay type: cell-based

SMILES	IC50 (Acetylcholinesterase [1])	IC50 [2]	IC50 (Cholinesterase [3])	inhibition (Acetylcholinesterase [4])	inhibition [5]	further results
O=C(CCCCCN1CCC2c3ccccc3NC2C1)Nc1ccc(/C=C2\CCn3c2nc2ccccc2c3=O)cc1 (stereo not given)	153 nM	18.3 µM	486 nM	–	–	–
O=C(CCCN1CCC2c3ccccc3NC2C1)Nc1ccc(/C=C2\CCn3c2nc2ccccc2c3=O)cc1 (stereo not given)	–	–	215 nM	49.9%	21.2%	–
O=C(O)C1NCCC2c3ccccc3NC12 (stereo not given)	–	–	–	29.7%	20.7%	inhibition (Cholinesterase [6]): 40.5%
O=c1c2ccccc2nc2n1CCC2	–	–	–	29.7%	20.7%	inhibition (Cholinesterase [6]): 40.5%
O=C(CCN1CCC2c3ccccc3NC2C1)Nc1ccc(/C=C2\CCn3c2nc2ccccc2c3=O)cc1 (stereo not given)	9.75 nM	–	726 nM	–	31.6%	–
O=C(CCCCCN1CCC2c3ccccc3NC2C1)Oc1ccc(/C=C2\CCn3c2nc2ccccc2c3=O)cc1 (stereo not given)	10.7 nM	15.1 µM	507 nM	–	–	–
O=C(CN1CCC2c3ccccc3NC2C1)Oc1ccc(/C=C2\CCn3c2nc2ccccc2c3=O)cc1 (stereo not given)	216 nM	–	238 nM	–	38.8%	–
O=C(CN1CCC2c3ccccc3NC2C1)Nc1ccc(/C=C2\CCn3c2nc2ccccc2c3=O)cc1 (stereo not given)	–	–	596 nM	21.6%	37.5%	–
O=c1c2cc(OCCCN3CCCCC3)ccc2nc2n1CCC2	–	–	–	–	–	IC50 (Acetylcholinesterase [7]): 50 nM
O=C(CCCCN1CCC2c3ccccc3NC2C1)Oc1ccc(/C=C2\CCn3c2nc2ccccc2c3=O)cc1 (stereo not given)	1.08 nM	2.05 µM	422 nM	–	–	Ratio IC50 [8]: 6; Activity (SH-SY5Y [9]): Active; viability at 48 h, 10 µM [10]: > 76%; Activity (SH-SY5Y [11]): Active; Activity (SH-SY5Y [12]): Non-Toxic
O=C(CCCCN1CCC2c3ccccc3NC2C1)Nc1ccc(/C=C2\CCn3c2nc2ccccc2c3=O)cc1 (stereo not given)	98.3 nM	–	32.8 nM	–	27.9%	–
O=C(CCN1CCC2c3ccccc3NC2C1)Oc1ccc(/C=C2\CCn3c2nc2ccccc2c3=O)cc1 (stereo not given)	0.93 nM	19.7 µM	69.2 nM	–	–	Activity (SH-SY5Y [9]): Active; viability at 48 h, 10 µM [10]: > 76%; Activity (SH-SY5Y [13]): Non-Toxic
O=C(CCCN1CCC2c3ccccc3NC2C1)Oc1ccc(/C=C2\CCn3c2nc2ccccc2c3=O)cc1 (stereo not given)	16.5 nM	–	44.1 nM	–	41.5%	–
